Reference: US20100234226A1, “HERBICIDE COMBINATION COMPRISING DIMETHOXYTRIAZINYL-SUBSTITUTED DIFLUOROMETHANESULFONYLANILIDES” (BAYER CROPSCIENCE AG, priority 2008, published 2010)
Read-outs that look alike come from different tables or passages of the source.

Experiments:
Type in all cases: in vivo
Zea mays (ZEAMX) = assay: Post-emergence action against weeds, greenhouse pot test, Zea mays; conditions: Zea mays, post-emergence, read-out: % activity found; for inhibition at 12 g/ha: 12 g of ai/ha; for inhibition at 36 g/ha: 36 g of ai/ha
Procedure: (§1) Seeds or rhizome pieces of mono- and dicotyledonous harmful and useful plants were placed in peat pots (diameter 4 cm) filled with sandy loam and then covered with soil. The pots were kept in a greenhouse under optimum conditions. In addition, harmful plants encountered in paddy rice cultivation were cultivated in pots with a water level 2 cm above the soil surface.
(§2) About three weeks after the start of the cultivation, the test plants were treated at the 2- to 3-leaf stage. The herbicides, formulated as powder or liquid concentrates, were, either alone or in the combinations according to the invention, sprayed in various dosages on to the green parts of the plants using an application rate of 600 l of water/ha (converted). For further cultivation of the plants, the pots were then again kept under optimum conditions in a greenhouse.
(§3) The visual scoring of the herbicidal effects was carried out in intervals up to 21 days after the treatment. Scoring was carried out in percent in comparison to the untreated control plants. 0%=no herbicidal activity, 100%=complete herbicidal activity=complete kill.
(§4) The percentages from the treatments with the herbicides alone (=individual application) and with the combinations according to the invention (=mixtures) were employed to calculate interactions using the method of Colby. When the observed efficacies of the mixtures exceed the formal sum of the values of the tests with individual applications, they also exceed the expected value according to Colby, which is calculated using the formula below (cf. S. R. Colby; in Weeds 15 (1967) pp. 20 to 22):
(§5) Here: • A, B=activity of components A and B in percent at a dosage of a and b g of ai/ha (=gramm of active substance per hectare), respectively. • E=expected value in % at a dosage of a+b g of ai/ha.
(§6) The combinations according to the invention of herbicides from group (A) with herbicides from group (B) were tested on a broad spectrum of important harmful plants (weed grasses, broad-leaved weeds/Cyperaceae) and useful plants: Triticum aestivum (TRZAS), Stellaria media (STEME), Lolium multiflorum (LOLMU), Veronica persica (VERPE), Alopecurus myosuroides (ALOMY), Matricaria inodora (MATIN), Brassica napus (BRSNW), Viola tricolor (VIOTR), Avena fatua (AVEFA), Amaranthus retroflexus (AMARE), Zea mays (ZEAMX), Pharbitis purpurea (PHBPU), Setaria viridis (SETVI), Fallopia (ex Polygonum) convolvulus (POLCO), Echinochloa crus-gaffi (ECHCG), Abuthilon theophrasti (ABUTH), Cyperus esculentus (CYPES), Oryza sativa (ORYSA).
(§7) Of particular interest are the results shown in the tables (Tab.) below, where the following key is used: • (1) EPPO code (former Bayer code) for the treated plant (see above) • (2) Time of scoring: DAT (days after treatment) • (3) Component A tested (identifying number) • (4) Component B tested (identifying number) • (5) Dosage component A [g of ai/ha] • (6) Dosage component B [g of ai/ha] • (7) % activity found • (8) E value (calculated according to Colby; see above) • (9) Comments: “SYNERGY”=synergistic interaction (E value <% activity found); “SAFENING”=safener action on useful plant (E value >% activity found)

[1] = tested on: Lolium multiflorum (LOLMU); assay: Post-emergence action against weeds, greenhouse pot test, Lolium multiflorum; conditions: 12 g of ai/ha, read-out: % activity found
Procedure: as §1, §2, §3, §4, §5, §6, §7

Veronica persica (VERPE) = assay: Post-emergence action against weeds, greenhouse pot test, Veronica persica; conditions: read-out: % activity found; for inhibition at 12 g/ha: 12 g of ai/ha; for inhibition at 36 g/ha: 36 g of ai/ha
Procedure: as §1, §2, §3, §4, §5, §6, §7

[2] = tested on: Matricaria inodora (MATIN); assay: Post-emergence action against weeds, greenhouse pot test, Matricaria inodora; conditions: Tripleurospermum inodorum, post-emergence, read-out: % activity found; for inhibition at 36 g/ha: 36 g of ai/ha
Procedure: as §1, §2, §3, §4, §5

Setaria viridis (SETVI) = assay: Post-emergence action against weeds, greenhouse pot test, Setaria viridis; conditions: 504 h, 21 DAT, read-out: % activity found
Procedure: as §1, §2, §3, §4
(§8) Here: • A, B=activity of components A and B in percent at a dosage of a and b g of ai/ha (=gramm of active substance per hectare), respectively. • E=expected value in % at a dosage of a+b g of ai/ha. […]

[3] = tested on: Fallopia (ex Polygonum) convolvulus (POLCO); assay: Post-emergence action against weeds, greenhouse pot test, Fallopia convolvulus; conditions: Fallopia convolvulus, post-emergence, 504 h, 21 DAT, read-out: % activity found
Procedure: as §1, §2, §3, §4, §5, §6, §7

Viola tricolor (VIOTR) = assay: Post-emergence action against weeds, greenhouse pot test, Viola tricolor; conditions: Viola tricolor, post-emergence, read-out: % activity found; for inhibition at 12 g/ha: 12 g of ai/ha
Procedure: as §1, §2, §3, §4, §5, §6, §7

[4] = tested on: Amaranthus retroflexus (AMARE); assay: Post-emergence action against weeds, greenhouse pot test, Amaranthus retroflexus; conditions: read-out: % activity found; for inhibition at 12 g/ha: 12 g of ai/ha; for inhibition at 36 g/ha: 36 g of ai/ha
Procedure: as §1, §2, §3, §4, §5, §6, §7

[5] = tested on: Pharbitis purpurea (PHBPU); assay: Post-emergence action against weeds, greenhouse pot test, Pharbitis purpurea; conditions: Ipomoea purpurea, read-out: % activity found; for inhibition at 12 g/ha: 12 g of ai/ha
Procedure: as §1, §2, §3, §4, §5, §6, §7

[6] = tested on: Cyperus esculentus (CYPES); assay: Post-emergence action against weeds, greenhouse pot test, Cyperus esculentus; conditions: Cyperus esculentus, post-emergence, read-out: % activity found; for inhibition at 12 g/ha: 12 g of ai/ha
Procedure: as §1, §2, §3, §4, §5

Oryza sativa (ORYSA) = assay: Post-emergence action against weeds, greenhouse pot test, Oryza sativa; conditions: 240 h, 10 DAT, read-out: % activity found
Procedure: as §1
as §2, with “greenhouse. […]” for “greenhouse.”
as §4, with “22): […]” for “22):”

[7] = tested on: Triticum aestivum (TRZAS); assay: Post-emergence action against weeds, greenhouse pot test, Triticum aestivum; conditions: 504 h, 21 DAT, read-out: % activity found
Procedure: as §1, §2, §3, §4, §8

Avena fatua (AVEFA) = assay: Post-emergence action against weeds, greenhouse pot test, Avena fatua; conditions: read-out: % activity found; for inhibition at 100 g/ha: 100 g of ai/ha
Procedure: as §1, §2, §3, §4, §8, §7

[8] = tested on: Alopecurus myosuroides (ALOMY); assay: Post-emergence action against weeds, greenhouse pot test, Alopecurus myosuroides; conditions: 504 h, 21 DAT, 100 g of ai/ha, read-out: % activity found
Procedure: as §1
as §2, with “greenhouse. […]” for “greenhouse.”
as §4, with “22): […]” for “22):”

Cc1ccccc1CO[C@@H]1C[C@@]2(C(C)C)CC[C@]1(C)O2 (racemic) [B-24, exo-(±)-1-methyl-4-(1-methylethyl)-2-[(2-methylphenyl)methoxy]-7-oxabicyclo[2.2.1]heptane] gave an inhibition at 12 g/ha (Zea mays (ZEAMX); 240 h, 10 DAT) of 0%, an inhibition at 36 g/ha (Zea mays (ZEAMX); 240 h, 10 DAT) of 20% and an inhibition at 12 g/ha (Zea mays (ZEAMX); 504 h, 21 DAT) of 0%. It also gave an inhibition at 36 g/ha (Zea mays (ZEAMX); 504 h, 21 DAT) of 0%, an inhibition at 12 g/ha ([1]; 240 h, 10 DAT) of 40% and an inhibition at 12 g/ha ([1]; 504 h, 21 DAT) of 20%. For the same compound, the inhibition at 12 g/ha (Veronica persica (VERPE); 240 h, 10 DAT) was 0%, the inhibition at 36 g/ha (Veronica persica (VERPE); 240 h, 10 DAT) was 0% and the inhibition at 12 g/ha (Veronica persica (VERPE); 504 h, 21 DAT) was 0%. It also gave an inhibition at 36 g/ha (Veronica persica (VERPE); 504 h, 21 DAT) of 0%, an inhibition at 36 g/ha ([2]; 240 h, 10 DAT) of 0% and an inhibition at 12 g/ha ([2]; 504 h, 21 DAT, 12 g of ai/ha) of 0%. It also gave an inhibition at 36 g/ha ([2]; 504 h, 21 DAT) of 0%, an inhibition at 12 g/ha (Setaria viridis (SETVI); 12 g of ai/ha) of 30% and an inhibition at 36 g/ha (Setaria viridis (SETVI); 36 g of ai/ha) of 50%. For the same compound, the inhibition at 12 g/ha ([3]; 12 g of ai/ha) was 0%, the inhibition at 36 g/ha ([3]; 36 g of ai/ha) was 0% and the inhibition at 12 g/ha (Viola tricolor (VIOTR); 240 h, 10 DAT) was 0%. It also gave an inhibition at 36 g/ha (Viola tricolor (VIOTR); 240 h, 10 DAT, 36 g of ai/ha) of 0%, an inhibition at 12 g/ha (Viola tricolor (VIOTR); 504 h, 21 DAT) of 0% and an inhibition at 12 g/ha ([4]; 240 h, 10 DAT) of 0%. For the same compound, the inhibition at 36 g/ha ([4]; 240 h, 10 DAT) was 0%, the inhibition at 12 g/ha ([4]; 504 h, 21 DAT) was 0% and the inhibition at 36 g/ha ([4]; 504 h, 21 DAT) was 0%. For the same compound, the inhibition at 12 g/ha ([5]; 240 h, 10 DAT) was 0%, the inhibition at 12 g/ha ([5]; 504 h, 21 DAT) was 0% and the inhibition at 36 g/ha ([5]; 504 h, 21 DAT, 36 g of ai/ha) was 0%. The inhibition at 12 g/ha ([6]; 240 h, 10 DAT) was 0%, the inhibition at 12 g/ha ([6]; 504 h, 21 DAT) was 0% and the inhibition at 36 g/ha ([6]; 504 h, 21 DAT, 36 g of ai/ha) was 20%. For the same compound, the inhibition at 12 g/ha (Oryza sativa (ORYSA); 12 g of ai/ha) was 0%, the inhibition at 36 g/ha (Oryza sativa (ORYSA); 36 g of ai/ha) was 20% and the inhibition at 12 g/ha ([7]; 12 g of ai/ha) was 0%. It also gave an inhibition at 36 g/ha ([7]; 36 g of ai/ha) of 10% and an inhibition at 12 g/ha (Avena fatua (AVEFA); 504 h, 21 DAT, 12 g of ai/ha) of 0%.

CC1(C)CON(Cc2ccccc2Cl)C1=O [B-26, 2-[(2-chlorophenyl)methyl]-4,4-dimethyl-3-isoxazolidinone] showed an inhibition at 100 g/ha (Zea mays (ZEAMX); 504 h, 21 DAT, 100 g of ai/ha) of 0%, an inhibition at 300 g/ha (Zea mays (ZEAMX); 504 h, 21 DAT, 300 g of ai/ha) of 30% and an inhibition at 100 g/ha ([2]; 10/21 DAT, 100 g of ai/ha) of 40%. For the same compound, the inhibition at 300 g/ha (Viola tricolor (VIOTR); 240 h, 10 DAT, 300 g of ai/ha) was 50%, the inhibition at 100 g/ha ([5]; 504 h, 21 DAT, 100 g of ai/ha) was 0% and the inhibition at 300 g/ha ([5]; 504 h, 21 DAT, 300 g of ai/ha) was 0%. The inhibition at 100 g/ha ([6]; 504 h, 21 DAT, 100 g of ai/ha) was 0%, the inhibition at 300 g/ha ([6]; 504 h, 21 DAT, 300 g of ai/ha) was 0% and the inhibition at 100 g/ha (Avena fatua (AVEFA); 240 h, 10 DAT) was 10%. It also gave an inhibition at 100 g/ha (Avena fatua (AVEFA); 504 h, 21 DAT) of 10%, an inhibition at 300 g/ha (Avena fatua (AVEFA); 504 h, 21 DAT, 300 g of ai/ha) of 30% and an inhibition at 100 g/ha [8] of 0%.
